System: HeLa cells
Experiment: LNP cellular uptake / eGFP mRNA expression by FACS flow cytometry
Type: cell-based, Human
Conditions: eGFP mRNA cargo
Method: LNP cellular uptake for the LNP formulations in Table 10 was tested. HeLa cells (Human epithelial cells, ATCC) were seeded at 0.05×10^6 cells per well in 1000 μL DMEM media (Dulbecco's Modified Eagle Medium, GIBCO) containing 10% FBS (GIBCO) and 5% penicillin streptomycin (GIBCO) in 24-well plate. The LNP formulations of Table 10 containing the eGFP mRNA were prepared with a total treatment dose of 250 ng and 1000 ng eGFP mRNA per well in triplicates. The cells were incubated for 24 h at 37° C. Cells were then trypsinized and resuspended in PBS and centrifuged at 200 g for 5 min. The supernatant was removed, and the pelleted cells were redispersed in 500 μL of PBS+2% FBS per well and transferred to FACS tubes and read on a flow cytometry analyzer (BD FACSCanto™ II). The data presented are the mean fluorescent intensity of the signals from each cell treatment analyzed. For transfection efficiency, treated cells were gated for EGFP expression, and the data presented are the percentage of cells analyzed with higher EGFP expression than untreated cells. […] HeLa cells were treated with the various formulations for 24 hours before using fluorescence activated cell sorting (FACS) flow cytometry to quantify eGFP expression in the treated cells. The higher the mean fluorescence intensity, the greater the expression of eGFP, ant therefore, the greater the transfection efficiency.

CCCCCCCCCCCOC(=O)CCCCCN(CCO)CCCCCCCC(=O)OC(CCCCCCCC)CCCCCCCC [SM-102]
efficacy (transfection), findings from all the experiments of Example 2: more efficacious ionizable lipid than D-Lin-MC3-DMA

— US20260165982A1, “COMPOSITIONS AND METHODS FOR DELIVERY OF NUCLEIC ACID THERAPEUTICS” (Entrada Therapeutics, Inc., priority 2022, published 2026)
